Results on five compounds are retold here after patent EP1674468A1, “Polymorphs of clopidogrel hydrobromide” (Ratiopharm GmbH, priority 2004, dated 2006).

Each structure is given as a SMILES string. Structures can show the parent of a compound that is named as a salt. Where two headings read alike, the source gives them in different places.

The conditions of series [1]: benzene/ acetonitrile 1:1, method example b (dissolved at 70°C, evaporation 24 hours at room temperature). How it is done: Method example b: 100 mg of clopidogrel hydrobromide HY-1 were dissolved in 3-5 ml of the first solvent at a temperature of 70°C. 8-10 ml of the second solvent were added to the solution over 3-5 minutes to reduce the polarity until it becomes a saturated solution. The solvent mixture was allowed to evaporate for 24 hours at room temperature at ambient pressure for 24 hours. The precipitate was filtered off.

For series [2] the following is noted: 100 mg in 5 ml, water bath at 80-100°C. As for the experimental part: Method example 1: 100 mg of clopidogrel hydrobromide HY-1 obtained according to example Ba) was dissolved in 5 ml of the solvent on a water bath at 80-100°C with constant shaking and the solvent was allowed to evaporate slowly at room temperature for 24 hours at ambient pressure.
For series [3] the following is noted: room temperature, closed glass container, after 8 to 10 month; PXRD, DSC, Raman. From the text: Polymorph Form B of clopidogrel hydrobromide obtained in example 2a) was stored at room temperature in a closed glass container.
The conditions of series [4]: in vivo; cited from earlier work.
The subject of series [5] is platelet aggregation. To be noted: 75 mg of base equivalent versus 325 mg of acetyl salicylic acid; cited from earlier work.
How the values of series [6] were obtained: Example 10: Stability of the forms (solvent mediated transformation studies)
To assess the stability of the anhydrous Forms A and B, solvent mediated transformation experiments were performed. […] This was tested by viewing a few crystals of Form A/Form B under the microscope by placing them on a glass plate with a cover-slip, adding a drop of water and spreading around the cover. […] Table 3: Results of the solvent mediated transformation studies

Regarding `COC(=O)[C@H](c1ccccc1Cl)N1CCc2sccc2C1` [Form HY-1, clopidogrel hydrobromide], in series [1], the “Remarks (behaviour in the solvent mixture)” value is “Decomposition”. In addition, the solubility entry is “highly soluble” in series [2] (solvent acetic acid); “soluble” in series [2] (solvent acetone); “soluble” in series [2] (solvent acetonitrile); “sparingly soluble” in series [2] (solvent benzene); “highly soluble” in series [2] (solvent chloroform); “insoluble” in series [2] (solvent cyclohexane). For the same compound, the solubility entry in series [2] (solvent dichloromethane) was “highly soluble”; in series [2] (solvent diethylether), “insoluble”; in series [2] (solvent dimethylformamide), “soluble”; in series [2] (solvent dioxane) it was “soluble in hot”; in series [2] (solvent ethanol) it was “highly soluble”; in series [2] (solvent ethylacetate), “soluble in hot”. For the same compound, the solubility entry is reported as “highly soluble” in series [2] (solvent i-propanol); “highly soluble” in series [2] (solvent methanol); “highly soluble” in series [2] (solvent n-butanol); “insoluble” in series [2] (solvent n-decane); “insoluble” in series [2] (solvent n-hexane); “soluble” in series [2] (solvent n-pentanol). Besides, the solubility result in series [2] (solvent n-propanol) was “highly soluble”; in series [2] (solvent nitromethane) it was “soluble”; in series [2] (solvent petrolether), “insoluble”; in series [2] (solvent tetrachloromethane), “insoluble”; in series [2] (solvent tetrahydrofurane), “soluble in hot”; in series [2] (solvent toluene), “soluble in hot”. The solubility result in series [2] (solvent water) is on record as “sparingly soluble in hot”; in series [2] (solvent xylene), “soluble in hot”.

For the compound `COC(=O)[C@H](c1ccccc1Cl)N1CCc2sccc2C1` [Form B, clopidogrel hydrobromide], in series [3], the “polymorphic form identified after storage” value is on record as “Form E”.

`COC(=O)[C@H](c1ccccc1Cl)N1CCc2sccc2C1` [Clopidogrel, (αS)-α-(2-chlorophenyl)-6,7-dihydrothieno[3,2-c]-pyridine-5(4H)-acetic acid methyl ester]: in series [4], the “gastrointestinal bleeding versus acetyl salicylic acid” value was “much less”. Besides, the “effectiveness in blocking platelet aggregation versus acetyl salicylic acid” value in series [5] was “more effective”.

`COC(=O)[C@H](c1ccccc1Cl)N1CCc2sccc2C1` [A:B (1:1), clopidogrel hydrobromide]: the Resulting form entry was “HY-2” in series [6] (solvent toluene, 1 day/10-30°C) and “HY-1” in series [6] (solvent water, 1 day/20°C). Also, the “polymorph produced on stirring” value in series [6] (toluene (200 mg in 3-5 ml), 10-30°C, 1-4 days, formed after 1 day, confirmed after 4 days and 2-4 weeks by PXRD, DSC, TGA, Raman) is reported as “HY-2”.

`COC(=O)[C@H](c1ccccc1Cl)N1CCc2sccc2C1` [Form A, clopidogrel hydrobromide]: in series [6] (a few crystals on a glass plate under the microscope, a drop of water added), the “time span within which needle like crystals corresponding to HY-1 were formed” value is reported as at most 30 min. Further, the “time span within which the form is converted to the hydrate, i.e. HY-1” value in series [6] (apolar solvents containing minimal amounts of water) was at most 1 h. Further, the Resulting form entry in series [6] (solvent water, 30 min/25°C) is recorded as “HY-1”.
